The subject of one test is mouse myoblasts (C2C12). Description: Atrophy of mouse myoblasts (C2C12) induced by C26 cell supernatant, myotube diameter by HE staining. It is filed as cell-based. Particulars: 48 hours treatment, C26 supernatant-induced C2C12 myotubes. As to the method: C2C12 cells were inoculated in 24-well plates. The culture system was high-glucose DMEM medium containing 10% FBS with 1% penicillin-streptomycin. The plates were placed in a 5% CO2, 37° C. environment. When the cell growth density reached 50%-60%, the culture system was replaced with high-glucose DMEM culture medium containing 2% HS with 1% penicillin-streptomycin. Fresh 2% HS differentiation medium was replaced every 48 hours, and the cells were differentiated into mature cells on the 5th or 6th day. Additionally, C26 cells were inoculated in T75 flasks. The culture system was high-glucose DMEM medium containing 10% FBS with 1% penicillin-streptomycin. The flasks were placed in a 5% CO2, 37° C. environment. When subculturing, the cells were subcultured at 6 million cells/flask. After culturing in 20 ml of culture medium for 48 hours, the supernatant was collected and centrifuged at 1000 rpm for 3 mins. The supernatant was collected and centrifuged at 4000 rpm for 10 mins to obtain the C26 supernatant. The C26 supernatant and 2% HS differentiation solution were mixed at a ratio of 1:1 (volume ratio) as the muscle atrophy induction solution. Except for the control group in which 2% HS differentiation solution was added, for the other groups, an equivalent amount of muscular atrophy induction solution was added. One group was used as the model group, and the other groups were used as the treatment and experimental groups.
The diameter of myotubes after differentiation of mouse myoblasts (C2C12) was evaluated by using the diameter measurement method. The method for measuring the diameter of myotubes was as follows: after 48 hours of treatment, the myotubes were fixed with a fixative (anhydrous ethanol: formaldehyde: glacial acetic acid (volume ratio)=20:2:1) for more than 1 h and stained. The staining method used in the experiment is hematoxylin-eosin staining, referred to as HE staining for short. Hematoxylin stain is alkaline and positively charged, and it can easily bind to the negatively charged and acidic deoxyribonucleic acid (DNA) in the cell nucleus through ionic bonds to stain it blue; eosin is an acidic dye that dissociates into negatively charged anions in water, and it can easily bind to the positively charged amino groups of proteins in the cytoplasm to stain it red. The stained cells were placed under a high-power microscope to take pictures (magnification: 200 times), and the diameter of myotube cells was statistically analyzed using image J software. The muscle atrophy reversal rate was calculated according to the following formula: Muscle atrophy reversal rate=(average value of myotubes in the treatment group-average value of myotubes in the model group)/(average value of myotubes in the control group-average value of myotubes in the model group)×100%

The next test concerns the target ActRIIB (Homo sapiens, UniProt Q13705). Description: ActRIIB inhibitory activity, ADP-Glo assay kit. In kind it is biochemical. Conditions: ATP 25 μM, substrate 0.1 mg/mL, ActRIIB 20.0 ng/μL. How it is done:
The ATP and substrate concentrations recommended by the ADP-Glo™ assay kit were used, which were 25 μM and 0.1 mg/mL, respectively, and a series of isocratic final ActRIIB concentrations were set up, which were 0, 0.47, 0.94, 1.88, 3.75, 7.5, 15, 30, and 60 ng/μL, respectively. According to the […] values obtained in the experiment, an ActRIIB concentration titration curve was drawn. The ActRIIB concentrations corresponding to the ratio of the signal value to the background value (i.e., signal-to-background ratio, SBR) in the range of 5-10 times are suitable for screening compounds for inhibition of ActRIIB activity. From the ActRIIB concentration titration curve, the final ActRIIB concentrations corresponding to SB5 and SB10 were calculated to be 14.9 and 23.7 ng/μL, respectively. Finally, a final concentration of 20.0 ng/μL was selected as the experimental concentration for screening compounds for their inhibitory activity against ActRIIB. The inhibitory efficiency of 7-azaindole compounds on ActRIIB was detected at concentrations of 0.1, 1, 10, and 100 nM, respectively.
A general note: ADP-Glo turns the ADP formed in a reaction into a luminescent signal.

Setting [1] is: Mus musculus, read-out: Myotube atrophy reversal rate.

Chain of ActRIIB (Q13705 19-512): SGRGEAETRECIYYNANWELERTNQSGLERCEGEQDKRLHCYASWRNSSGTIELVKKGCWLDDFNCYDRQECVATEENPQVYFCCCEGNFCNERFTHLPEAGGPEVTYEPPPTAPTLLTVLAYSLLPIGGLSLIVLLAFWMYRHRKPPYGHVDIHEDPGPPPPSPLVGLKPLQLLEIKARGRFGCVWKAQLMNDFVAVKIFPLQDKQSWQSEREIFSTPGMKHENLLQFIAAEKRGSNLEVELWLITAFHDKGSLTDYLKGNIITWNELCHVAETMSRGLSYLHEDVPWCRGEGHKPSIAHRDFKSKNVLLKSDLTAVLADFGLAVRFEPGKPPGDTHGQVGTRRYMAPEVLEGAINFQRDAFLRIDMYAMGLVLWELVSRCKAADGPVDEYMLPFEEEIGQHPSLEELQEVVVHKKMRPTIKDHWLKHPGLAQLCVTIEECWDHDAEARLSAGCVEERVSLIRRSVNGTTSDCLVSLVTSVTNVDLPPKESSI

The term IC50 denotes the midpoint of a concentration-inhibition curve. Low readings indicate greater potency, high ones weaker potency. In the case of `CN1CCN(c2ccc(-c3cnc4[nH]cc(-c5cn[nH]c5)c4c3)cc2)CC1` [Compound 1, 3-(1H-pyrazol-4-yl)-5-[4-(4-methylpiperazin-1-yl)phenyl]-1H-pyrrolo[2,3-b]pyridine], the inhibition at 2.5 µM in the test with mouse myoblasts (C2C12) (setting [1]) amounted to 63.5%. The IC50 against ActRIIB was 20.4 nM.
With `Cc1n[nH]cc1-c1c[nH]c2ncc(-c3ccc(N4CCN(C)CC4)cc3)cc12` [Compound 4, 3-(3-methyl-1H-pyrazol-4-yl)-5-[4-(4-methylpiperazin-1-yl)phenyl]-1H-pyrrolo[2,3-b]pyridine], the inhibition at 5 µM in the test with mouse myoblasts (C2C12) (setting [1]) was found to be 63.6%. Moreover, the IC50 against ActRIIB turned out to be 58.6 nM.
For `Cc1n[nH]c(C)c1-c1c[nH]c2ncc(-c3ccc(N4CCN(C)CC4)cc3)cc12` [Compound 5, 3-(3,5-dimethyl-1H-pyrazol-4-yl)-5-[4-(4-methylpiperazin-1-yl)phenyl]-1H-pyrrolo[2,3-b]pyridine], the inhibition at 5 µM in the test with mouse myoblasts (C2C12) (setting [1]) is 79.5%. At ActRIIB, this compound displayed a concentration for half-maximal inhibition (IC50) of 1.2 nM.
Regarding `CN1CCN(c2ccc(-c3cnc4[nH]cc(-c5ccnn5C)c4c3)cc2)CC1` [Compound 6, 5-[4-(4-methylpiperazin-1-yl)phenyl]-3-(2-methylpyrazol-3-yl)-1H-pyrrolo[2,3-b]pyridine], in the test with mouse myoblasts (C2C12) (setting [1]), the inhibition at 2.5 µM was 45.9%, the inhibition at 5 µM came out at 79.1% and the inhibition at 10 µM was determined as 99.8%. The IC50 at ActRIIB was found to be 1.4 nM.
For `CCn1nccc1-c1c[nH]c2ncc(-c3ccc(N4CCN(C)CC4)cc3)cc12` [Compound 7, 3-(2-ethylpyrazol-3-yl)-5-[4-(4-methylpiperazin-1-yl)phenyl]-1H-pyrrolo[2,3-b]pyridine], the inhibition at 10 µM in the test with mouse myoblasts (C2C12) (setting [1]) came out at 77.1%. Moreover, the IC50 against ActRIIB came out at 4.4 nM.
Consider `CC(C)n1nccc1-c1c[nH]c2ncc(-c3ccc(N4CCN(C)CC4)cc3)cc12` [Compound 8, 5-[4-(4-methylpiperazin-1-yl)phenyl]-3-[2-(prop-2-yl)pyrazol-3-yl]-1H-pyrrolo[2,3-b]pyridine], for which, in the test on mouse myoblasts (C2C12) (setting [1]), the inhibition at 5 µM came out at 62.2%. Also, at ActRIIB, the IC50 was determined as 2.6 nM.
Consider `CN1CCN(c2ccc(-c3cnc4[nH]cc(-c5cnn(C)c5)c4c3)cc2)CC1` [Compound 9, 5-[4-(4-methylpiperazin-1-yl)phenyl]-3-(1-methylpyrazol-4-yl)-1H-pyrrolo[2,3-b]pyridine], for which the inhibition at 2.5 µM in the test on mouse myoblasts (C2C12) (setting [1]) turned out to be 61.1%. This compound also yielded a concentration for half-maximal inhibition (IC50) against ActRIIB of 70.8 nM.
With `Cn1nccc1-c1c[nH]c2ncc(-c3ccc(OCCN4CCOCC4)cc3)cc12` [Compound 12, 3-(2-methylpyrazol-3-yl)-5-(4-{[2-(1,4-oxazacyclohexan-4-yl)ethyl]oxy}phenyl)-1H-pyrrolo[2,3-b]pyridine], the inhibition at 5 µM in the test on mouse myoblasts (C2C12) (setting [1]) was determined as 73.8%.
In the case of `Cn1nccc1-c1c[nH]c2ncc(-c3ccc(OCCN4CCCCC4)cc3)cc12` [Compound 13, 5-(4-{[2-(hexahydropyridin-1-yl)ethyl]oxy}phenyl)-3-(2-methylpyrazol-3-yl)-1H-pyrrolo[2,3-b]pyridine], the inhibition at 10 µM in the test on mouse myoblasts (C2C12) (setting [1]) was found to be 86.2%. Further, the IC50 at ActRIIB came out at 12.6 nM.
`CN1CCN(C(=O)c2ccc(-c3cnc4[nH]cc(-c5ccnn5C)c4c3)cc2)CC1` [Compound 14, (4-methylpiperazin-1-yl) {4-[3-(2-methylpyrazol-3-yl)-1H-pyrrolo[2,3-b]pyridin-5-yl]phenyl}ketone]: the inhibition at 10 µM with mouse myoblasts (C2C12) (setting [1]) worked out at 57%.
For the compound `CN1CCN(Cc2ccc(-c3cnc4[nH]cc(-c5ccnn5C)c4c3)cc2)CC1` [Compound 15, 5-{4-[(4-methylpiperazin-1-yl)methyl]phenyl}-3-(2-methylpyrazol-3-yl)-1H-pyrrolo[2,3-b]pyridine], in the test with mouse myoblasts (C2C12) (setting [1]), the inhibition at 2.5 µM stood at 47.5%, the inhibition at 5 µM was 99.1% and the inhibition at 10 µM is 109%.
As to `Cn1nccc1-c1c[nH]c2ncc(-c3ccc(N4CCOCC4)cc3)cc12` [Compound 16, 3-(2-methylpyrazol-3-yl)-5-[4-(1,4-oxazacyclohexan-4-yl)phenyl]-1H-pyrrolo[2,3-b]pyridine], in the test on mouse myoblasts (C2C12) (setting [1]), the inhibition at 5 µM is 78%. The compound also came in with an IC50 on ActRIIB of 1.86 nM.
For `Cn1nccc1-c1c[nH]c2ncc(-c3ccc(N4CCNCC4)cc3)cc12` [Compound 17, 3-(2-methylpyrazol-3-yl)-5-[4-(piperazin-1-yl)phenyl]-1H-pyrrolo[2,3-b]pyridine], the inhibition at 1.25 µM in the test on mouse myoblasts (C2C12) (Mus musculus, 1.25 μM, read-out: Myotube atrophy reversal rate) stood at 39.9%. Also, in the test on mouse myoblasts (C2C12) (setting [1]), the inhibition at 2.5 µM came out at 65% and the inhibition at 5 µM worked out at 97.7%. On ActRIIB, this compound registered an IC50 of 3.61 nM.
For `CCN(CC)CCOc1ccc(-c2cnc3[nH]cc(-c4ccnn4C)c3c2)cc1` [Compound 18, 5-(4-{[2-(diethylamino)ethyl]oxy}phenyl)-3-(2-methylpyrazol-3-yl)-1H-pyrrolo[2,3-b]pyridine], the inhibition at 10 µM with mouse myoblasts (C2C12) (setting [1]) came to 84.5%. At ActRIIB, the IC50 came out at 78.9 nM.
With `Cc1noc(C)c1-c1c[nH]c2ncc(-c3ccc(N4CCN(C)CC4)cc3)cc12` [Compound 19, 3-(3,5-dimethylisoxazol-4-yl)-5-[4-(4-methylpiperazin-1-yl)phenyl]-1H-pyrrolo[2,3-b]pyridine], in the test with mouse myoblasts (C2C12) (setting [1]), the inhibition at 5 µM stood at 69.4%. 24.2 nM corresponded to half-maximal inhibition against ActRIIB (IC50).
`c1cc(-c2c[nH]c3ncc(-c4ccc(OCCN5CCOCC5)cc4)cc23)n[nH]1` [Compound 20, 3-(1H-pyrazol-3-yl)-5-(4-[[2-(1,4-oxazacyclohexan-4-yl)ethyl]oxy]phenyl)-1H-pyrrolo[2,3-b]pyridine]: in the test with mouse myoblasts (C2C12) (1.25 μM), the “Myotube atrophy reversal rate” value was found to be 54.04%.
As to `CN1CCN(c2ccc(-c3cnc4[nH]cc(-c5cccnc5)c4c3)cc2)CC1` [Compound 22, 5-[4-(4-methylpiperazin-1-yl)phenyl]-3-(pyridin-3-yl)-1H-pyrrolo[2,3-b]pyridine], the inhibition at 5 µM with mouse myoblasts (C2C12) (setting [1]) was found to be 75.4%. This compound had an IC50 at ActRIIB of 87.3 nM.
Consider `CN1CCN(c2ccc(-c3cnc4[nH]cc(-c5cncnc5)c4c3)cc2)CC1` [Compound 23, 5-[4-(4-methylpiperazin-1-yl)phenyl]-3-(pyrimidin-5-yl)-1H-pyrrolo[2,3-b]pyridine], for which the inhibition at 5 µM in the test on mouse myoblasts (C2C12) (setting [1]) was 97.9%. At ActRIIB, this compound yielded an IC50 of 4.8 nM.
As to `CN1CCN(c2ccc(-c3cnc4[nH]cc(-c5ccncc5)c4c3)cc2)CC1` [Compound 24, 5-[4-(4-methylpiperazin-1-yl)phenyl]-3-(pyridin-4-yl)-1H-pyrrolo[2,3-b]pyridine], the inhibition at 5 µM in the test with mouse myoblasts (C2C12) (setting [1]) amounted to 76.7%. Besides, at ActRIIB, the IC50 turned out to be 59.3 nM.
Regarding `CN1CCN(c2ccc(-c3cnc4[nH]cc(-c5ccccc5)c4c3)cc2)CC1` [Compound 25, 5-[4-(4-methylpiperazin-1-yl)phenyl]-3-phenyl-1H-pyrrolo[2,3-b]pyridine], the inhibition at 5 µM in the test with mouse myoblasts (C2C12) (setting [1]) stood at 77.1%. This compound showed a half-inhibitory concentration (IC50) at ActRIIB of 1.2 nM.

The values above are taken from US20260193255A1, “7-AZAINDOLE COMPOUNDS, PREPARATION METHOD THEREFOR, AND USE THEREOF” (Fudan University, priority 2022, published 2026).
